{
  "source": "patent US20090123389A1",
  "about": "“Methods for modulating Th17 cell development in the treatment and prevention of cellulite” (priority 2007, published 2009)",
  "key": {"STAT3": {"test_system": "STAT3", "assay": "Kinetics of STAT3 phosphorylation in developing Th17 cells", "type": "cell-based, mouse", "conditions": "TGFβ plus IL-6", "experimental": "FIG. 11A is a series of graphs depicting representative histograms displaying the kinetics of STAT3 phosphorylation in developing Th17 cells treated with or without HF. Resting naïve T cells (shaded peak), T cells activated in the presence of TGFβ plus IL-6 (TGFβ/IL-6) treated with 10 nM MAZ1310, TGFβ/IL-6-activated T cells treated with 5 nM HF, TGFβ/IL-6-activated T cells treated with 10 nM HF. T cells were fixed at the indicated times and intracellular phospho-STAT3 staining was performed.\nWhole cell lysates were generated at the indicated times following activation, and western blotting was performed using the indicated antibodies.\nFACS analyses and sorting: All cell surface staining was performed in FACS buffer (PBS/2% FCS/0.1% NaN3) and antibodies were incubated with cells on ice for 20-30 minutes. Cells were washed with FACS buffer and fixed with FACS buffer plus 1% paraformaldehyde prior to data acquisition. For phospho-STAT3 intracellular staining, stimulated T cells cultured with or without TGFβ plus IL-6 for the indicated times were harvested on ice and fixed in PBS plus 2% paraformaldehyde for 10 minutes at 37° C. […] All FACS data was acquired on a FACSCalibur flow cytometer (BD Pharmingen) and analyzed using FlowJo software (Treestar, Inc., Ashland, Oreg.). […]"}, "SV-MES mesangial cells": {"test_system": "SV-MES mesangial cells", "assay": "eIF2α phosphorylation in SV-MES mesangial cells (western blot)", "type": "cell-based", "conditions": "20 nM HF, 2 hours", "experimental": "SV-MES mesangial cells were stimulated for 2 hours with DMSO, 20 nM MAZ1310 or 20 nM HF. Whole cell lysates were analyzed for expression of phosphorylated or total eIF2α or GCN2 by western blotting.\nWestern blotting: Whole cell lysates were generated from T cells activated for the indicated times. For STAT3 and Smad2/3 western blots cells were harvested, washed in PBS and lysed in 50 mM Tris, pH 7.4, 0.1% SDS, 1% Triton-×100, 140 mM NaCl, 1 mM EDTA, 1 mM EGTA supplemented with protease inhibitors tablets (Roche—Germany), 1 mM NaF and 1 mM Na3VO4. For eIF2α and ATF4 western blots, cells were harvested as above and lysed in 50 mM Tris, pH 7.4, 2% SDS, 20% glycerol and 2 mM EDTA supplemented with protease and phosphatase inhibitors as above. All lysates were cleared via centrifugation and 15-30 μg of protein was resolved by SDS-PAGE. Protein was transferred to nitrocellulose membranes, blocked and blotted using specific antibodies. Antibodies used for western blot analysis were anti-phospho-Smad2, anti-STAT3 (pY705), anti-STAT3, anti-eIF2α^pS51, anti-eIF2α, anti-GCN2^pT898, anti-GCN2 (all from cell signaling technology, Danvers, Mass.). Anti-ATF4/CREB2 and anti-β-actin were purchased from Santa Cruz biotechnology (Santa Cruz, Calif.). […]"}},
  "data": [
    {"smiles": "O=C(CC1NCCCC1O)Cn1cnc2cc(Br)c(Cl)cc2c1=O", "note": "(racemic) [HF, 7-bromo-6-chloro-3-[3-(3-hydroxy-2-piperidinyl)-2-oxopropyl]-4(3H)-quinazolinone]", "values": [
      {"measurement": "STAT3 activation during the first 6 hours of Th17 differentiation", "setting": "STAT3; 5 or 10 nM HF", "result": "did not interfere"},
      {"measurement": "maintenance of STAT3 phosphorylation", "setting": "STAT3; beginning around 12 hours-post activation", "result": "decreased the maintenance of STAT3 phosphorylation"},
      {"measurement": "eIF2α phosphorylation in cultured fibroblasts", "setting": "SV-MES mesangial cells", "result": "increased eIF2α phosphorylation"}
    ]}
  ]
}
